In article PMC8231572, “New Heparanase-Inhibiting Triazolo-Thiadiazoles Attenuate Primary Tumor Growth and Metastasis” (Cancers, 2021):
Entries after “also recorded” stand apart in the source; their conditions may differ.

Experiments:
[1] = target: T1, heparanase (Homo sapiens, UniProt Q9Y251); assay: Colorimetric heparanase assay (fondaparinux/Arixtra cleavage, WST-1); assay type: biochemical; settings: fondaparinux substrate, heparanase 140 pM, pH 5.0, 37 °C, 18 h; for IC50: read-out: IC50, inhibition of heparanase enzymatic activity (converted)
T1 sequence (Q9Y251 158-543 limits assumed): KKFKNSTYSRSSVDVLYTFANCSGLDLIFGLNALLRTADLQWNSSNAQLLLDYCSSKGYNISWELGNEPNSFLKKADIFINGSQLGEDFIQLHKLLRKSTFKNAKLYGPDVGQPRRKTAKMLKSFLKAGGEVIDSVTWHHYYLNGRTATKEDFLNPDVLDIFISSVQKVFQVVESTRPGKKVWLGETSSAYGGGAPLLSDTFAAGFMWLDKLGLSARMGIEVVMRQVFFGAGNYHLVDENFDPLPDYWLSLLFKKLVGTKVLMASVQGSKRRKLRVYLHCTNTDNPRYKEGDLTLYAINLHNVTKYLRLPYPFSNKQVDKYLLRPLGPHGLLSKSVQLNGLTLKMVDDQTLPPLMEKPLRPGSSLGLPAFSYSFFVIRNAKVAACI
T1 sequence (Q9Y251 36-109 limits assumed): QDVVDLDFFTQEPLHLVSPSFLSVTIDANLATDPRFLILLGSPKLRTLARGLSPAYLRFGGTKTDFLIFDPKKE
Experimental: The assay was carried out in a 96-well plate in which the formation of the disaccharide product upon cleavage of fondaparinux (Arixtra, GlaxoSmithKline, Brentford, UK) was estimated using WST-1 tetrazolium salt as described earlier. In brief, the reaction system (100 μL) comprised sodium acetate buffer (pH 5.0, 40 mM) and fondaparinux ([…]) with or without different doses of chemicals under investigation. The assay was initiated by the addition of recombinant heparanase to make the final concentration of 140 pM. The reaction vessels were placed at 37 °C for 18 h, followed by the addition of stop solution (100 μL). WST-1 prepared in 0.1 M NaOH served as a stop solution. Thereafter, the plates were incubated at 60 °C for 60 min, and absorbance was measured at 584 nm. N-(4-([4-(1H-Benzoimidazol-2-yl)-arylamino]-methyl)-phenyl)-benzamide (compound #98) was used as a reference compound. The title compounds were examined for their inhibitory efficacy towards heparanase at 10 and 50 μg/mL. Compounds that yielded inhibition at these concentrations were further tested at lower concentrations to determine their IC50.
The newly synthesized compounds presented in Table 1 were examined for their ability to inhibit the enzymatic activity of recombinant heparanase. For the initial screening of compounds, we applied a colorimetric assay based on the cleavage of the synthetic heparin pentasaccharide fondaparinux (Arixtra). The assay measures the appearance of a disaccharide product of heparanase-catalyzed fondaparinux cleavage, using the tetrazolium salt WST-1 [23]. All compounds were first tested for inhibition of heparanase at 10 and 50 μg/mL (not shown). Compounds that yielded inhibition at these high concentrations were further examined at lower concentrations to determine their IC50 (Figure 2).

[2] = system: tumor cell; parameters: method as in PMID 28359266; settings: cited from earlier work
[3] = system: MPC-11 mouse myeloma cells; assay: MPC-11 syngeneic myeloma tumor growth; assay type: in vivo
Experimental: The mouse myeloma (MPC-11) cells were gently washed with PBS and the cell number was adjusted to 5 × 10^6 cells/mL. Thereafter, six-week-old female BALB/c mice (n = 6) were subcutaneously injected with washed MPC-11 cells (5 × 10^5/0.1 mL). The experimental animals were treated with either DMSO alone (0.1 mL/mouse) or 4-MMI (daily 200 μg/mouse, i.p.) starting from day 2 after the implantation of tumor cells, for 12 days. The tumor size was measured using calipers on day 8 and day 12. The tumor volume (V) was determined using the equation V = L × W^2 × 0.52, where L is the length and W is the width of the tumor. Lastly, the mice were euthanized and xenograft tumors were removed, weighed, and fixed using formalin for further studies.
Figure 5 MPC-11 tumor growth. Cells (MPC-11 mouse myeloma) from exponential cultures were washed with PBS and brought to a concentration of 5 × 10^6 cells/mL. Cell suspension (5 × 10^5/0.1 mL) was inoculated subcutaneously at the right flank of 6-week-old female BALB/c mice (n = 6). Mice were treated with either DMSO (0.1 mL/mouse) or test compound (daily 200 µg/mouse, i.p.), starting on day 2 after the injection of tumor cells, for 12 days. Tumor size was determined on days 8 and 12 by externally measuring the tumors in two dimensions using a caliper (A, p < 0.001). […]

[4] = system: 4T1 mouse breast carcinoma cells; assay: 4T1 breast carcinoma experimental metastasis, IVIS bioluminescence imaging; assay type: in vivo, BALB/c mice; settings: IVIS day 13
Experimental: 4TI mouse breast cancer cells tagged with luciferase (1.5 × 10^5/0.1 mL/BALB/c mouse) were inoculated intravenously. Test compounds (i.p., 500 μg/mouse) or DMSO (0.1 mL/mouse) were administered 20 min before cell injection. The mice were analyzed using IVIS bioluminescent on day 7 and day 13 post-inoculation. These cells metastasize primarily to the lungs.
The bioluminescence imaging of tumors generated from luciferase-expressing cancer cells was carried out using a highly sensitive, cooled charge-coupled device camera assembled in a specimen box (IVIS; Xenogen Corp, Hopkinton, MA, USA). The imaging has advantages such as real-time capture, non-invasive, and quantitative values. For this, the tumor-bearing mice were intraperitoneally administered with a luciferase substrate D-luciferin at a dose of 150 mg/kg body weight. The experimental animal was anesthetized and kept in a camera box followed by continuous exposure to isoflurane (EZAnesthesia, Palmer, PA, USA). The bioluminescence from the tumor mass was detected by the IVIS system, and, subsequently, the tumor burden was quantified using Living Image software (Xenogen).
Figure 4 Inhibition of 4T1 breast carcinoma experimental metastasis. […] Quantification of the luciferase intensities is shown graphically in the lower panel, as described in ‘Section 2. […]

[5] = system: VEGF; assay: Immunostaining of MPC-11 tumor sections with anti-VEGF antibodies; assay type: in vivo, BALB/c mice; settings: tumors of mice treated daily with 200 μg/mouse i.p.
Experimental: Next, we examined the capacity of compound 4-MMI to inhibit myeloma primary tumor growth. For this purpose, we applied the MPC-11 syngeneic myeloma model. Briefly, BALB/c mice were implanted subcutaneously with MPC-11 mouse myeloma cells (0.5 × 10^6/mouse) and treated with either DMSO (0.1 mL/mouse) or 4-MMI (daily 200 μg/mouse, i.p.), starting on day two after tumor cell inoculation. Xenograft Tumor size was measured on days 8 and 12 (Figure 5A), resected, and weighed (Figure 5B) (see also Figure S2).
Figure S2. MPC-11 tumor growth. MPC-11 cells were inoculated subcutaneously at the right flank of 6-weeks old female Balb/C mice (n=6). Mice were treated with either DMSO (0.1 ml/mouse) or 4-MMI (daily 200 μg/mouse, i.p.) starting on day 2 after the injection of tumor cells, for 12 days. Tumor size was determined on days 8 and 12 (left panel). At the end of the experiment, mice were sacrificed and the tumors were resected and weighed (right panel). For more detail see figure 5.
Figure S3. Immunostaining. Tumors produced by untreated (control) a nd 4-MMI treated Balb/c mice were removed (day 13), fixed and embedded in paraffin. Five micron sections were subjected to immunostaining applying anti-VEGF antibodies. Shown are representative images (original magnification x100). […]

[6] = system: U87 human glioma cells; assay: Cell invasion through Matrigel-coated transwell filters (Boyden chambers); assay type: cell-based; settings: 10 µg/mL, 6 h, 37 °C, Matrigel-coated 8 μm transwell filters
Experimental: Invasion assay was performed using Boyden chambers as reported previously. Briefly, U87 cells (5 × 10^5) were seeded into the upper chamber of the invasion chamber in a medium devoid of serum, and the lower chamber contained media supplemented with serum. The cell invasion on treatment with title compounds (4-MMI, 4-CMI; […]) was analyzed by staining with 0.5% crystal violet (Sigma-Aldrich) and photographed.
(§1) Figure 3 Inhibition of ECM degradation and cell invasion. (A) ECM degradation. Active heparanase (200 ng) was incubated for 5 h without (red) or with 5 and 25 µg/mL of 4-CMI, 4-MDI, or 4-MMI on dishes coated with sulfate-labeled ECM. Labeled material released from the ECM was subjected to gel filtration (Sepharose 6B). Heparan sulfate degradation fragments are typically eluted in fractions 18–30. (B) Cell invasion. U87 human glioma cells (2 × 10^5) were plated onto Matrigel-coated 8 μm transwell filters and incubated (6 h, 37 °C) in the absence (Con) or presence of 4-MMI or 4-CMI (10 µg/mL). (C) Dose–response showing the effect of compound 4-MMI (2.5, 10, and 40 µg/mL) on U87 cell invasion. Invading cells adhering to the lower side of the membrane were visualized (top panels) and quantified (bottom panel) in 7 random fields as described in ‘Materials and Methods’.

[7] = target: T1, heparanase; assay: ECM degradation heparanase assay (sulfate-labeled ECM, Sepharose 6B gel filtration); assay type: biochemical; settings: heparanase 200 ng, 5 h; for inhibition of heparanase activity (ECM degradation): 5 µg/mL compound; for inhibition at 25 µg/mL: 25 µg/mL compound
Experimental: ECM degradation heparanase assay was carried out as reported earlier. Briefly, ECM labeled with sulfate [^35S] [25] and coating the surface of 35-mm cultures plates was treated with heparanase (200 ng/mL) with or without compounds under investigation. The medium was collected to examine the cleavage of HS proteoglycans and subjected to molecular sieving on Sepharose 6B columns. The radioactivity was measured in the eluted fractions (0.2 mL). Blue dextran and phenol red were used to mark the excluded volume (Vo) and included volume (Vt), respectively. The cleaved HS chains were eluted at 0.5 < Kav < 0.8 (fractions 16–32), and the nearly intact proteoglycan was eluted with the void volume.
To validate the results and better resemble the in vivo situation, we applied metabolically sulfate [Na2^35SO4] labeled extracellular matrix (ECM) deposited by cultured endothelial cells. This naturally produced substrate closely resembles the subendothelial basement membrane in its composition, biological function, and barrier properties. […] This semi-quantitative assay measures release of radioactive heparan sulfate (HS) degradation fragments from an insoluble extracellular matrix (ECM) that is firmly bound to a culture dish.
as §1

Molecule	IC50 [1] [µM]	invasion capacity of U87 cells [6]	inhibition of heparanase activity (ECM degradation) [7]	inhibition at 25 µg/mL [7] [%]	further results
Oc1c(I)cc(I)cc1-c1nn2c(-c3ccccc3)nnc2s1 [DTP, 2,4-Diiodo-6-(3-phenyl-[1,2,4]triazolo[3,4-b][1,3,4]thiadiazol-6yl)phenol, reference compound]	54.9				IC50 values, inhibition of tumor cell proliferation, migration, and invasion in vitro [2]: micromolar range
Cc1ccc(-c2nnc3sc(-c4cc(I)ccc4O)nn23)cc1 [4-MMI, 4-iodo-2-(3-(p-tolyl)-[1,2,4]triazolo[3,4-b][1,3,4]thiadiazol-6-yl)phenol]	7.14	significantly inhibited	little or no inhibition	50 to 70	tumor growth and tumor burden (tumor size days 8 and 12, tumor weight) ([3]; daily 200 μg/mouse i.p. from day 2 for 12 days, s.c. MPC-11 tumors): effectively and markedly decreased the rate of tumor growth and the tumor burden; also recorded: profound inhibition of tumor growth and burden; signs of distress and toxicity ([3]; daily administration of 200 ug/mouse/day): no signs of distress and toxicity; inhibition of 4T1 experimental metastasis (extravasation and lung colonization, luciferase intensity) ([4]; 500 μg/mouse i.p. 20 min before i.v. cell inoculation): inhibited the extravasation of 4T1 cells and their subsequent colonization in the mouse lungs; also recorded: nearly fourfold inhibition; VEGF levels in tumor sections [5]: marked decrease in the levels of VEGF; also recorded: profound reduction in VEGF levels
Oc1ccc(I)cc1-c1nn2c(-c3ccc(Cl)cc3)nnc2s1 [4-CMI, 2-(3-(4-chlorophenyl)-[1,2,4]triazolo[3,4-b][1,3,4]thiadiazol-6-yl)-4-iodophenol]	6.6	significantly inhibited	little or no inhibition	50 to 70	
N-(4-([4-(1H-Benzoimidazol-2-yl)-arylamino]-methyl)-phenyl)-benzamide [Compound #98, reference compound]					IC50, inhibition of heparanase enzymatic activity [1]: 0.7 µg/mL
Roneparstat [reference compound]					inhibition of 4T1 experimental metastasis (luciferase intensity) ([4]; positive control 150 µg/mouse i.p. 20 min before i.v. cell inoculation): comparable
Cc1ccc(-c2nnc3sc(-c4cc(I)cc(I)c4O)nn23)cc1 [4-MDI, 2,4-diiodo-6-(3-(p-tolyl)-[1,2,4]triazolo[3,4-b][1,3,4]thiadiazol-6-yl)phenol]	22.3		little or no inhibition	50 to 70	
